Values belong to the compound of their own block, whether it stands above or below them. Non-standard residues stand in square brackets, D forms with d. Residues, ends and D or L forms follow the SMILES beside them. dNMeBip = CN[C@H](Cc1ccc(-c2ccccc2)cc1)C(=O)O
Legend:
[1] = target: T1, purified human hemoglobin (Homo sapiens, UniProt P68871); test: Oxygen dissociation curve (ODC) of purified hemoglobin, Hemox analyzer, P50; type: biochemical; conditions: for P50 with purified hemoglobin: hemoglobin 20 μM, tested compound 120 μM, purified hemoglobin alone 17 Torr
T1 construct: For experiments with purified hemoglobin, hemoglobin (20 μM as tetramer) was dissolved in DPBS
T1 sequence (P68871 2-147 limits assumed): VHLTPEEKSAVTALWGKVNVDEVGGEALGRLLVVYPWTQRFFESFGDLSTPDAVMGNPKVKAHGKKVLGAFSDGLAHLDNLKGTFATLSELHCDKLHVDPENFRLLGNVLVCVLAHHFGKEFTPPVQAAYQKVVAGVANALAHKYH
T1 sequence (P69905 2-142 partner limits assumed): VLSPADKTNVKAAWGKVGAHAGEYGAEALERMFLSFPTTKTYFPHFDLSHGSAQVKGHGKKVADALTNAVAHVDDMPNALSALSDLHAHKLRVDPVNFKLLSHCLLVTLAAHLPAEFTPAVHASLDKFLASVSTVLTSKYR
Experimental: (§1) The ODC of hemoglobin was measured with a Hemox analyzer (TCS Scientific Corporation) at 37° C. For experiments with purified hemoglobin, hemoglobin (20 μM as tetramer) was dissolved in DPBS and antifoam (0.2 vol %, Catalog No. AFA-25, TCS Scientific Corporation) was added to prevent foaming of the sample. Compounds were prepared in DMSO stock solutions then added to hemoglobin. The final concentration of DMSO was adjusted to 5 vol %. For experiments with RBCs, blood was drawn from volunteers into EDTA tubes. The blood was centrifuged for 15 min at 3,000 rpm at 4° C. The supernatant was discarded, and RBCs were washed three times with DPBS, pH 7.4 by dilution to 50% hematocrit. The washed RBCs were then diluted with Hemox solution (mixture of N-[Tris(hydroxymethyl)methyl]-2-aminoethanesulfonic acid (TES, 30 mM), sodium chloride (135 mM), and potassium chloride (5 mM) in water (pH 7.4), TCS Scientific Corporation), and mixed with the test compound stock solutions. When known allosteric effectors NEM (400 μM), 5HMF (2 mM) or formamidine disulfide (400 μM) were mixed with RBCs (20 μM as hemoglobin tetramer) for 1 h at 37° C., P50 was reduced to 8 Torr, 9 Torr, and 9 Torr respectively, which correlated with previous reports (see Garel et al., European Journal of Biochemistry, 1982, 123, 513-519). Data was analyzed by two-tailed, unpaired Student's t test using Microsoft Excel 2007.
A saturating effect on P50 was first determined by adding an increasing concentration of 2,3-DPG and IHP. No increase of P50 of hemoglobin was observed after an addition of a 30-fold molar excess of 2,3-DPG or IHP to hemoglobin. Hemoglobin (20 μM as tetramer) was pre-incubated with either 2,3-DPG (600 μM) or IHP (600 μM) followed by addition of Compound 1 (0, 50, 100, 150 and 200 μM) to the hemoglobin.

[2] = target: T2, hemoglobin (Homo sapiens, UniProt P68871); test: Small molecule microarray (SMM) binding to hemoglobin; conditions: hemoglobin 1 μg/mL, antibody detection
T2 construct: incubated in a TBS-T solution containing purified hemoglobin (1 μg/mL)
T2 sequence (P68871 2-147 limits assumed): as the sequence (P68871 2-147 limits assumed) above
T2 sequence (P69905 2-142 partner limits assumed): as the sequence (P69905 2-142 partner limits assumed) above
Experimental: Test compounds were affixed to SMM slides with isocyanate-functionalized surfaces as described in Casalena et al., Methods in molecular biology, 2012, 803, 249-263. Pre-incubating the SMMs with albumin blocked non-specific binding of the compounds to SMMs. Compounds binding to hemoglobin were detected on the SMMs using a fluorescent dye-conjugated antibodies specific for hemoglobin. The assay was validated by confirming the binding of hemoglobin to 2,3-DPG affixed on SMMs.
Each slide contained 48 “blocks”, and each block contained approximately 100 unique surface-immobilized small molecules. Compounds were printed in duplicate, and each slide was screened in duplicate, resulting in four replicates for every test compound. SMM slides were blocked by incubating them in a TBS-T solution (Tween 20, 0.01 vol %) containing bovine serum albumin (BSA, 0.1 wt %) for 30 min. […]
Using SMM Hits-Analyzer software (Broad Institute), the measured fluorescent signal of the foreground of a given spot (F) was divided by its local background (B) resulting in a calculated F/B ratio for each spot on which the test compounds were affixed. The F/B ratios were fitted to a Cauchy distribution plot for every block on the slide, and “positive” hits were determined using a p-value threshold of 7%. […]

[3] = tested on: human red blood cells (RBCs) / whole blood; test: Oxygen dissociation curve (ODC) of RBCs / whole blood, Hemox analyzer, P50; type: cell-based; conditions: for P50 of RBCs: RBCs 20 μM as hemoglobin tetramer, 1 h at 37° C.; for P50 of whole blood: hemoglobin 20 μM, tested compound 120 μM, whole blood alone 26 Torr
Experimental: as §1

[4] = tested on: RBCs; test: Hemolysis of RBCs / blood on incubation with compound; type: cell-based, human; design: key to Hemolysis of whole blood (P50 of whole blood column): c: does not hemolyze; conditions: for Hemolysis of diluted human blood: diluted human blood 50 μM, compound/Hb tetramer 30/1 mol/mol (1.5 mM), FIG. 9; for Hemolysis of whole blood (P50 of whole blood column): hemoglobin 20 μM, tested compound 120 μM
[5] = target: T2, hemoglobin; test: Hemoglobin oxygen-binding assay (oxyHb % by spectrophotometry at controlled FO2); type: biochemical; conditions: allosteric effector to hemoglobin tetramer 6 to 1 (mol/mol)
Experimental: Test compounds (0.75 μL, 10 mM in DMSO) were added to the central area of two 384 deep well plates forming compound plates. DPBS was used as the solvent for myo-inositol hexaphosphate (IHP) and N-ethylmaleimide (NEM) (10 mM). To prevent oxidation of hemoglobin during the experiment, glucose-6-phosphate (0.4 mg/mL), glucose-6-phosphate dehydrogenase (1.0 U/mL), nicotinamide adenine dinucleotide phosphate (NADP, 0.05 mg/mL), ferredoxin (0.01 mg/mL), ferredoxin-NADP reductase (0.01 U/mL) and catalase (2×10^3 U/mL) were added to hemoglobin to produce the Hayashi reducing system, which is described in detail in Hayashi et al., Biochemica et Biophysica Acta, 1973, 310, 309-316. […]
The alteration of hemoglobin's oxygen-binding affinity by the test compounds binding to hemoglobin was evaluated in an environment where the fractional oxygen pressure (FO2) could be precisely measured and controlled. […] To confirm the allosteric effect of the test compounds, ODC of hemoglobin was measured in the presence and absence of each compound. […]
The ability of small molecules to alter the oxygen affinity of hemoglobin was determined by measuring the fraction of oxygenated hemoglobin (oxyHb %) and oxidized hemoglobin (metHb %) using spectrophotometry under three (high, medium, and low oxyHb saturation) conditions. […]

Compound: Cc1cc(C)cc(C(=O)N(C)[C@H](Cc2ccccc2)C(=O)N[C@@H](Cc2c[nH]c3ccccc23)C(=O)O)c1 [Compound 2, (S)-3-(1H-indol-3-yl)-2-((R)-3-phenyl-2-(N,3,5-trimethylbenzamido)propanamido)propanoic acid]
Oxygen affinity of red blood cells (RBCs) ([3]; human blood, FIG. 9): increased | Hemolysis of diluted human blood [4]: without hemolysis | Increase of P50 of hemoglobin, dose dependence ([1]; FIG. 3, FIG. 6-7): concentration-dependent | P50 with purified hemoglobin [1]: 20 Torr

Compound: O=Cc1ccc(CO)o1 [Compound 5HMF, reference compound]
P50 of RBCs ([3]; allosteric effector 2 mM): 9 Torr

Compound: Cc1cc(C)cc(C(=O)N(C)C(Cc2ccc(-c3ccccc3)cc2)C(=O)NC(C)(C)C(=O)O)c1 (stereo not drawn) [Compound 10, 2-(3-([1,1′-biphenyl]-4-yl)-2-(N,3,5-trimethylbenzamido)propanamido)-2-methylpropanoic acid]
P50 of whole blood [3]: 31 Torr | Hemolysis of whole blood (P50 of whole blood column) [4]: c | P50 with purified hemoglobin [1]: 23 Torr

Compound: CCN1C(=O)C=CC1=O [NEM, N-ethylmaleimide, reference compound]
P50 of RBCs ([3]; allosteric effector 400 μM): 8 Torr | Change of oxyHb % [5]: increase

Compound: Cc1cc(C)cc(NC(=O)Cc2ccc(OC(C)(C)C(=O)O)cc2)c1 [RSR-13, reference compound]
Hemolysis of diluted human blood [4]: hemolysis

Compound: N=C(N)SSC(=N)N [formamidine disulfide, reference compound]
P50 of RBCs ([3]; allosteric effector 400 μM): 9 Torr

More lines, main results first:

P50 with purified hemoglobin [1]: 18 Torr
Compound: CC(=O)N(C)[C@@H](Cc1ccccc1)C(=O)N[C@H](Cc1c[nH]c2ccccc12)C(=O)O (stereo in doubt) [Compound 5, (R)-3-(1H-indol-3-yl)-2-((S)-2-(N-methylacetamido)-3-phenylpropanamido)propanoic acid]

Binding of hemoglobin to compound affixed on SMMs [2]: binding | P50 of hemoglobin ([1]; hemoglobin 20 μM tetramer, compound 200 μM, DPBS pH 7.4, 5 vol % DMSO, 37° C., hemoglobin alone 17 Torr): 19±0.1 Torr | P50 of hemoglobin with 2,3-DPG ([1]; hemoglobin 20 μM, 2,3-DPG 600 μM (pre-saturated), no Compound 1): 23±0.7 Torr
Compound: O=C(O)C(COP(=O)(O)O)OP(=O)(O)O (stereo not drawn) [2,3-DPG, 2,3-diphosphoglycerate, reference compound]

P50 with purified hemoglobin [1]: 20 Torr
Compound: CC(=O)N(C)[C@H](Cc1ccc(-c2ccccc2)cc1)C(=O)N[C@@H](Cc1c[nH]c2ccccc12)C(=O)O [Compound 4, (S)-2-((R)-3-([1,1′-biphenyl]-4-yl)-2-(N-methylacetamido)propanamido)-3-(1H-indol-3-yl)propanoic acid] (Ac-[dNMeBip]-Trp-OH)

P50 with purified hemoglobin [1]: 48 Torr
Compound: Cc1cc(C)cc(C(=O)NC(Cc2ccc(-c3ccccc3)cc2)C(=O)NCC(=O)O)c1 (stereo not drawn) [Compound 8, 2-(3-([1,1′-biphenyl]-4-yl)-2-(3,5-dimethylbenzamido)propanamido)acetic acid]
P50 of whole blood [3]: 32 Torr | Hemolysis of whole blood (P50 of whole blood column) [4]: c

P50 with purified hemoglobin [1]: 28 Torr
Compound: Cc1cc(C)cc(C(=O)N(C)C(Cc2ccc(-c3ccccc3)cc2)C(=O)NCC(=O)O)c1 (stereo not drawn) [Compound 9, 2-(3-([1,1′-biphenyl]-4-yl)-2-(N,3,5-trimethylbenzamido)propanamido)acetic acid]
P50 of whole blood [3]: 33 Torr | Hemolysis of whole blood (P50 of whole blood column) [4]: c

Change of oxyHb % [5]: decrease
Compound: O=P(O)(O)O[C@H]1[C@H](OP(=O)(O)O)[C@@H](OP(=O)(O)O)[C@H](OP(=O)(O)O)[C@@H](OP(=O)(O)O)[C@H]1OP(=O)(O)O [IHP, myo-inositol hexaphosphate]

From US20160331783A1, “BISAMIDE COMPOUNDS AS ALLOSTERIC EFFECTORS FOR REDUCING THE OXYGEN-BINDING AFFINITY OF HEMOGLOBIN” (THE GENERAL HOSPITAL CORPORATION, priority 2014, published 2016)
